# Experimental data as given in patent publication US4983601A, “Benzo(b)pyrrolobenzodiazepines” (Hoechst-Roussel Pharmaceutical Inc., priority 1989, dated 1991).
# System: phenyl-para-quinone induced writhes
# Experiment: phenyl-para-quinone writhing assay in mice (analgetic activity)
# Format: in vivo
# Settings: screening dose of 20 mg/kg, subcutaneous (sc)
# Experimental: Exptl. Biol. Med., 95, 729 ([…])]. Presented in the Table is the analgetic activity of representative compounds of the invention and a standard, expressed as the estimated subcutaneous dose at which the mice experience a 50% reduction in phenyl-para-quinone induced writhes, i.e., the ED50 -value, or the percent inhibition of writhing caused by a screening dose of 20 mg/kg of body weight administered subcutaneously (sc).
row,Structure (SMILES),"Analgetic Activity, percent inhibition of writhing [%]"
1,"O=c1n(CCCc2noc3cc(F)ccc23)nc2n1-c1cc(Br)ccc1N1CCc3cccc-2c31 [11-Bromo-1,2-dihydro-7-[3-(6-fluoro-1,2-benzisoxazol-3-yl)-1-propyl]benzo[b]pyrrolo[3,2,1-jk][1,2,4]triazolo[4,3-d][1,4]benzodiazepin-8(7H)-one]",54
2,"O=c1n(CCc2ccccc2)nc2n1-c1ccccc1N1CCc3cccc-2c31 [1,2-Dihydro-7-(2-phenylethyl)benzo[b]pyrrolo[3,2,1-jk][1,2,4]triazolo[4,3-d][1,4]benzodiazepin-8(7H)-one]",62
3,"Brc1ccc2c(c1)-n1nnnc1-c1cccc3c1N2CC3 [11-Bromo-1,2-dihydrobenzo[b]pyrrolo[3,2,1-jk]tetrazolo[1,5-d][1,4]benzodiazepine]",56
4,"Cc1ccc2c(c1)n1c(CN(C)C)nnc1c1cccc3ccn2c31 [11-Methyl-8-(dimethylamino)methylbenzo[b]pyrrolo[3,2,1-jk][1,2,4]triazolo[4,3-d][1,4]benzodiazepine]",57

# Same assay, conditions: subcutaneous (sc)
row,Structure (SMILES),"Analgetic Activity, ED50 (estimated subcutaneous dose at which the mice experience a 50% reduction in phenyl-para-quinone induced writhes) [mg/kg]"
1,"CCC(=O)O[C@](Cc1ccccc1)(c1ccccc1)[C@H](C)CN(C)C [propoxyphene, reference compound]",3.9
2,"CN(C)Cc1nnc2n1-c1cc(Br)ccc1N1CCc3cccc-2c31 [11-Bromo-1,2-dihydro-8-(dimethylamino)methylbenzo[b]pyrrolo[3,2,1-jk][1,2,4]triazolo[4,3-d][1,4]benzodiazepine]",3.55
